Results from patent US20240228491A1, “METHIONINE ADENOSYLTRANSFERASE INHIBITOR, PREPARATION METHOD THEREFOR AND APPLICATION THEREOF” (SCINNOHUB PHARMACEUTICAL CO., LTD., priority 2021, published 2024).

What was measured:
HCT116 MTAP-/- cells = experiment: Activity test of HCT116 MTAP gene homozygous deletion cells (CellTiter-Glo); type: cell-based; conditions: Homo sapiens, HCT-116, 120 h incubation, read-out: HCT116 MTAP-/- Cell IC50
Protocol: On day 1, cell seeding: after digestion of the cells with trypsin, the cells were resuspended to the desired density with the complete medium (RPMI-1640 supplemented with 10% FBS; the brand of FBS is EXCELL, Cat. No. FND500; the brand of RPMI-1640 is ATCC, Cat. No. 30-2001), mixed evenly, and added into the 96-well plate at 100 μL/well with a cell density of 1000-3000 cells per well. The plate was put back to the incubator for the adherent growth of cells. On day 2, the addition of the compounds to be tested: before the addition of the compounds, the cells were starved with serum-free medium for 4 h, then the complete medium containing the corresponding concentration of compounds was added thereto, and the cells were incubated at 37° C., 5% CO2 for 120 h. On day 7, the cell culture plates were taken out from incubator and equilibrated to room temperature. 50 μL of CellTiter-Glo (Promega Company, Cat. No. G7571) reagent was added per well, and the cells were fully lysed by shaking at room temperature for 2 min, and then incubated for another 60 min to detect the fluorescence intensity. Calculation formula:
(§1) % Inhibition=100−(signal of the well with the compound to be tested−signal of the well with only medium and free of cells)/(signal of the well with cells but without addition of the compound−signal of the well with only medium and free of cells)×100.
The fitting dose-effect curve of the analysis software GraphPad Prism 5 was used to give IC50 values of the individual compounds against cellular activity.

MAT2a = MAT2a (Homo sapiens (Human), UniProt P31153); experiment: MAT2a enzymatic activity test (colorimetric assay); type: biochemical; conditions: OD620, 150 min reaction, read-out: IC50 against MAT2a
Protocol: The Colorimetric assay method was used to detect the IC50 value of the tested compounds on MAT2a.
The specific steps were as follows: The compounds having the test starling concentration of 1 μM or 10 μM were diluted into 10 concentration points in a 3-fold gradient. 250 nL of the solutions of the compounds to be tested with 10 different concentrations were taken and added into a 384 well plate for later use. 20 μg/mL of MAT2a enzyme solution was prepared with Assay buffer (50 mM Tris, 50 mM KCl, 10 mM MgCl2, 0.05% polyoxyethylene lauryl ether, pH 8.0). 15 μL of the MAT2a enzyme solution at 20 μg/mL was add into the wells of the compounds to be tested at different concentrations; and 15 μL of Assay buffer was added into the negative control well. An incubation was carried out for 15 minutes after shaking for mixing well. A mixed substrate solution (comprising 400 μM ATP and 600 μM L-Methionine) was prepared with Assay buffer. 10 μL of the mixed substrate solution was added to the positive control well, the compound to be tested well, and the negative control well, respectively, and the reaction began, for a reaction time of 150 min. Then, 50 μL of the reaction stop solution (BIOMOL Green™ Reagent Enzo lifesciences, Cargo No. BML-AK111-1000) was added to stop the reaction, followed by being centrifuged at 1000 rpm for 60 s and then being incubated for 15 min. OD620 was read and data were processed.
By using the log value of the concentration as the X-axis and the inhibition % as the Y-axis, the IC50 value of each compound against enzyme activity was obtained through employing the log(inhibitor) vs. response-Variable slope fitting dose-effect curve of the analysis software GraphPad Prism 5.

KP-4 cells = experiment: Inhibitory activity test of KP-4 cells; type: cell-based; conditions: Homo sapiens, 144 h incubation, read-out: KP-4 cell inhibitory activity IC50
Protocol: On day 1, cell seeding: after digestion of the cells with trypsin, the cells were resuspended to 1*10^4/mL with RPMI1640 complete medium (HyClone Company, Cat. No. SH30809.01) supplemented with 10% FBS (Gibco, 10099141C), mixed evenly, and added into the 96-well plate at 100 μL/well. The plate was put back to the incubator for the adherent growth of cells. On day 2, the addition of the compounds to be tested: 100 μL of the complete medium containing the compounds (the concentration of the compound in the medium was formulated as follows: 3-fold gradient dilution from 60 μM, 10 concentration gradients in total) was added, incubated for 144 hours at 37° C., 5% CO2. On day 8, the cell culture plates were taken out from incubator and equilibrated to room temperature, excess medium was pipetted from the wells so that 50 μL of supernatant was retained, and 50 μL of CellCounting-Lite 2.0 (Nanjing Vazyme Biotech Co., Ltd., Cat. No. DD1101) reagent was added per well, and the cells were fully lysed by shaking at room temperature for 10 min, and incubated for 5 min to detect the fluorescence intensity.
as §1
(§2) The log value of concentration was used as the X-axis and % Inhibition was used as the Y-axis, so as to fit the dose-effect curve and calculate the IC50 value using nonlinear regression (dose response−variable slope) in the analysis software GraphPad Prism 8.

DOHH-2 cells = experiment: Inhibitory activity test of DOHH-2 cells; type: cell-based; conditions: Homo sapiens, 120 h incubation, CellTiter-Glo, read-out: DOHH-2 cell inhibitory activity IC50
Protocol: On day 1, cell seeding: cells were resuspended to the desired density with DMEM complete medium (Gibico, Cat. No. 10569010) supplemented with 10% FBS (Gibco, 10099141C), mixed evenly, and added into the 384-well plate at 30 μL/well with a cell density of 800/well. The compounds to be tested were added as follows: 30 nL of DMSO solution containing the compound (the concentration of the compound in which was formulated as: 3-fold gradient dilution from 10 mM, 10 concentration points in total) was added, incubated for 120 h at 37° C., 5% CO2. On day 6, the cells treated with compounds were removed and equilibrated to room temperature, 30 μL of CellTiter-Glo (Promega company, Cat. No. G7573) reagent was added per well, and the cells were fully lysed by shaking at room temperature, and then incubated in dark at 37° C., 5% CO2 for 30 min, to detect the fluorescence intensity.
% Inhibition=100−(signal of the well with the compound to be tested−signal of the well with only medium and free of cells)/(signal of the well with cells but without the addition of the compound−signal of the well with only medium and free of cells)×100.
as §2

Chain of MAT2a (P31153 whole entry): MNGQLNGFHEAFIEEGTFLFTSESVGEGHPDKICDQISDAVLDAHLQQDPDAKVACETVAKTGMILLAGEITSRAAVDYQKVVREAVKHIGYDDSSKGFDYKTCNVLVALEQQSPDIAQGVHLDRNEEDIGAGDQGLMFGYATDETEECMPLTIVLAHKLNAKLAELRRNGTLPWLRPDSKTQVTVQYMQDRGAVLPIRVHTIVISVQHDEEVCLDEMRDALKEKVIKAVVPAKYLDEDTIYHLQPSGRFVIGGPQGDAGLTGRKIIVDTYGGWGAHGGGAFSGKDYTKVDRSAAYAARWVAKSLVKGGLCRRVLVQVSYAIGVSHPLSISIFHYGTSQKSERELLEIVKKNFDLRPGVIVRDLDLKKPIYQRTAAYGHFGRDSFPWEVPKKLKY

COCCn1cc2cc(-c3c(N)c4ccc(C(F)(F)F)nc4n(-c4ccc(Cl)cc4)c3=O)ccc2n1 [Example 48]
IC50 (HCT116 MTAP-/- cells): 13.3 nM
IC50 (MAT2a): 16.1 nM
IC50 (KP-4 cells): 170 nM
IC50 (DOHH-2 cells): 518 nM
